Experiment [1] relates to MV4; 11 cells. As to the kind of experiment: inhibiting the growth of MV4; 11 cells. It is filed as cell-based. To be noted: Homo sapiens.
Experiment [2] addresses T1, hClpP (Homo sapiens, UniProt Q16740).
T1 construct: made in house
Nature of the experiment: activating ClpP hydrolysis of FITC-casein (fluorescence kinetic detection). It counts as biochemical. Particulars: hClpP 1 μM, FITC-Casein 4 μM, 37° C. The procedure, abridged: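 hClpP at 1 μM final preincubated with compounds (assay-buffer dilutions 200 μM–2 nM, before mixing) 30 min at 37 °C, then 4 μM final FITC-casein added. Fluorescence read kinetically at 37 °C every 1 min for 15 min, duplicate wells.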

Drawing on patent US20240327408A1, “COMPOUNDS CONTAINING TETRAHYDRONAPHTHYRIDINONE OR TETRAHYDROPYRIDOPYRIMIDINONE SKELETON, PREPARATION METHOD THEREFOR AND PHARMACEUTICAL USE THEREOF” (CHINA PHARMACEUTICAL UNIVERSITY, priority 2021, published 2024), this text covers IC50 and EC50 for 12 molecules.

T1 sequence (Q16740 57-277): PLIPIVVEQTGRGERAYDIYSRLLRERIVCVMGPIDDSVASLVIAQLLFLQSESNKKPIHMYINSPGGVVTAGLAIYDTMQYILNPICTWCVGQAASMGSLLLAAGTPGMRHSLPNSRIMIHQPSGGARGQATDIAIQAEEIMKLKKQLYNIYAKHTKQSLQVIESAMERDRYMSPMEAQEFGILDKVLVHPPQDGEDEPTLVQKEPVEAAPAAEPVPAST

Take `Cn1ccnc1Cn1c(=O)c2c(c3cccnc31)CCN(Cc1ccccc1)C2` [Compound I-65, 3-benzyl-6-((1-methyl-1H-imidazol-2-yl)methyl)-2,3,4,6-tetrahydropyrido[3,4-c][1,8]naphthyridine-5-(1H)-one]: in experiment [1], the IC50 – broadly, the concentration at which inhibition is half-maximal – was in the range of 1000 to 10000 nM. Besides, the half-maximal effective concentration (EC50) (commonly the concentration giving half of the maximal effect) in experiment [2] lay within 10000 to 100000 nM.
In the case of `O=c1c2c(n3ccnc3n1Cc1ccccc1)CCN(Cc1cccc(F)c1)C2` [Compound I-108, 7-(3-fluorobenzyl)-4-benzyl-6,7,8,9-tetrahydroimidazo[1,2-a]pyrido[3,4-e]pyrimidine-5(4H)-one], the IC50 in experiment [1] is less than 1000 nM. The EC50 in experiment [2] is less than 1000 nM.
The molecule `O=c1c2c(c3cccnc3n1Cc1ccccc1)CCN(Cc1ccncc1)C2` [Compound I-29, 6-benzyl-3-(pyridin-4-ylmethyl)-2,3,4,6-tetrahydropyrido[3,4-c][1,8]naphthyridine-5-(1H)-one] showed an IC50 in experiment [1] of 1000 to 10000 nM. The molecule further returned an EC50 in experiment [2] of 10000 to 100000 nM.
Regarding `CCc1ccc(Cn2c(=O)c3c(c4cccnc42)CCN(Cc2ccccc2)C3)cc1` [Compound I-56, 3-benzyl-6-(4-ethylbenzyl)-2,3,4,6-tetrahydropyrido[3,4-c][1,8]naphthyridine-5-(1H)-one], the IC50 in experiment [1] is less than 1000 nM. The EC50 in experiment [2] was less than 1000 nM.
As for `N#Cc1cccc(CN2CCc3c(c(=O)n(Cc4ccc(C(F)(F)F)cc4)c4cncn34)C2)c1` [Compound I-165, 7-(3-cyanobenzyl)-4-(4-trifluoromethylbenzyl)-6,7,8,9-tetrahydroimidazo[1,5-a]pyrido[3,4-e]pyrimidine-5(4H)-one], the IC50 in experiment [1] was 1000 to 10000 nM. Moreover, the EC50 in experiment [2] lay in the range of 1000 to 10000 nM.
Molecule `Cc1ccc(Cn2c(=O)c3c(c4cccnc42)CCN(Cc2cccc(C#N)c2)C3)cc1` [Compound I-91, 6-(4-methylbenzyl)-3-(3-cyanobenzyl)-2,3,4,6-tetrahydropyrido[3,4-c][1,8]naphthyridine-5-(1H)-one] showed an IC50 in experiment [1] of less than 1000 nM. In experiment [2], this molecule had an EC50 of less than 1000 nM.
For the molecule `CN(C)c1ccc(Cn2c(=O)c3c(c4cccnc42)CCN(Cc2cccc(C#N)c2)C3)cc1` [Compound I-90, 6-(4-dimethylaminobenzyl)-3-(3-cyanobenzyl)-2,3,4,6-tetrahydropyrido[3,4-c][1,8]naphthyridine-5-(1H)-one], in experiment [1], the IC50 is 1000 to 10000 nM. Besides, the EC50 in experiment [2] lay within 1000 to 10000 nM.
`COc1ccc(Cn2c(=O)c3c(n4ccnc24)CCN(Cc2cccc(F)c2)C3)cc1` [Compound I-143, 7-(3-fluorobenzyl)-4-(4-methoxybenzyl)-6,7,8,9-tetrahydroimidazo[1,2-a]pyrido[3,4-e]pyrimidine-5(4H)-one] showed an IC50 in experiment [1] of less than 1000 nM. In experiment [2], this molecule showed an EC50 of less than 1000 nM.
Regarding `O=c1c2c(c3cccnc3n1Cc1ccccc1)CCN(Cc1ccc(F)cc1)C2` [Compound I-18, 6-benzyl-3-(4-fluorobenzyl)-2,3,4,6-tetrahydropyrido[3,4-c][1,8]naphthyridine-5-(1H)-one], in experiment [1], the IC50 was less than 1000 nM. In experiment [2], the EC50 is 1000 to 10000 nM.
On the same counts, the results for `O=c1c2c(c3cccnc3n1Cc1ccc(F)cc1)CCN(Cc1cccc(F)c1)C2` [Compound I-71, 3-(3-fluorobenzyl)-6-(4-fluorobenzyl)-2,3,4,6-tetrahydropyrido[3,4-c][1,8]naphthyridine-5-(1H)-one] are less than 1000 nM and less than 1000 nM.
`COc1ccc(Cn2c(=O)c3c(c4cccnc42)CCN(Cc2cccc(C#N)c2)C3)cc1` [Compound I-87, 6-(4-methoxybenzyl)-3-(3-cyanobenzyl)-2,3,4,6-tetrahydropyrido[3,4-c][1,8]naphthyridine-5-(1H)-one] showed a concentration for half-maximal inhibition (IC50) in experiment [1] of less than 1000 nM. The EC50 in experiment [2] was less than 1000 nM.
On to `O=c1c2c(c3cocc3n1Cc1ccc(C(F)(F)F)cc1)CCN(Cc1ccccc1)C2` [Compound I-101, 7-benzyl-4-(4-trifluoromethylbenzyl)-6,7,8,9-tetrahydrofuro[3,4-C][2,7]naphthyridine-5(4H)-one], for which, in experiment [1], the IC50 is less than 1000 nM. In addition, the EC50 in experiment [2] was less than 1000 nM.
